For experiment [1], the target named is T1, 5-hydroxytryptamine receptor 2B (Homo sapiens, UniProt P41595). The experiment is classed as functional, cell-based.
The target in experiment [2] is T1, 5-hydroxytryptamine receptor 2B. The experiment is classed as functional, cell-based. This is another data set of the same source.
The target in experiment [3] is Beta-2 adrenergic receptor (Homo sapiens, UniProt P07550).
In experiment [4] the target is cGMP-inhibited 3',5'-cyclic phosphodiesterase 3A (Homo sapiens, UniProt Q14432). It is filed as functional.
Experiment [5] has as its target T2, Endothelin-1 receptor (Homo sapiens, UniProt P25101).
T2 sequence (P25101 whole entry): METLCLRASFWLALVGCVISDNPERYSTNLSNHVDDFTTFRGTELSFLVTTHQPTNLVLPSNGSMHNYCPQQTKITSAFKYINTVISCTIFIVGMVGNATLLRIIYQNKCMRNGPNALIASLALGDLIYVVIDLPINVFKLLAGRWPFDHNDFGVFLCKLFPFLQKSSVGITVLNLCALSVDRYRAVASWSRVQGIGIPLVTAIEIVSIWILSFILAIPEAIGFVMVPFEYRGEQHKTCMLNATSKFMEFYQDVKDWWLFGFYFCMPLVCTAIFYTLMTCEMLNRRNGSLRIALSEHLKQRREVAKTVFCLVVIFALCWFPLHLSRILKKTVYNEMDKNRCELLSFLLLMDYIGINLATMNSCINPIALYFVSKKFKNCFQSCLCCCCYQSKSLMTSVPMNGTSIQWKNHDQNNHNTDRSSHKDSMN

For experiment [6], the target named is Growth hormone secretagogue receptor type 1 (Homo sapiens, UniProt Q92847).
For experiment [7], the target named is T3, B2 bradykinin receptor (Homo sapiens, UniProt P30411).
T3 sequence (P30411 whole entry): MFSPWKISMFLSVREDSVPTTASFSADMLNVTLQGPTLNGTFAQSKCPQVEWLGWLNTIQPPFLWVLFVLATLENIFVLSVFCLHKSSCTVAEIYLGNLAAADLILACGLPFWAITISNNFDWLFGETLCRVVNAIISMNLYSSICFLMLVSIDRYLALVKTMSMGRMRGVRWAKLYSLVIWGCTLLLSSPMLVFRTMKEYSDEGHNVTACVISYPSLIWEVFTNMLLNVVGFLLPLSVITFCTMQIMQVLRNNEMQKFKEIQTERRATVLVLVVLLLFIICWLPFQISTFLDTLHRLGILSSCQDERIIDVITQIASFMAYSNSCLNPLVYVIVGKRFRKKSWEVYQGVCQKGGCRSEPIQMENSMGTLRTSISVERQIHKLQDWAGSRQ

Experiment [8] addresses T4, Muscarinic acetylcholine receptor M2 (Homo sapiens, UniProt P08172).
T4 sequence (P08172 whole entry): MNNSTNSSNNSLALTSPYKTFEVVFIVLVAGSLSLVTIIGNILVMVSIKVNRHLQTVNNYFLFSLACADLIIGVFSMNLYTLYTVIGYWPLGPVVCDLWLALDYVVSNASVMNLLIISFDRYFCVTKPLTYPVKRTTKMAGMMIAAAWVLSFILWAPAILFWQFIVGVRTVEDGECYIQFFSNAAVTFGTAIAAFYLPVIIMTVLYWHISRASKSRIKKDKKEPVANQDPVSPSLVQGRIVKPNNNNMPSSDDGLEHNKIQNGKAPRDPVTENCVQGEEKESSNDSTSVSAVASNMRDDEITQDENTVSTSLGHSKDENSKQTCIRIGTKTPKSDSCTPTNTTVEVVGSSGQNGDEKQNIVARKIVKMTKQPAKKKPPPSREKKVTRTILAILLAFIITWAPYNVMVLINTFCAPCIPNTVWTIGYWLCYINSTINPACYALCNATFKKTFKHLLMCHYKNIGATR
The experiment is classed as functional, cell-based.

Experiment [9] deals with Neuronal acetylcholine receptor subunit alpha-4 (Homo sapiens, UniProt P43681).
Experiment [10] deals with T5, Adenosine receptor A3 (Homo sapiens, UniProt P0DMS8).
T5 sequence (P0DMS8 whole entry): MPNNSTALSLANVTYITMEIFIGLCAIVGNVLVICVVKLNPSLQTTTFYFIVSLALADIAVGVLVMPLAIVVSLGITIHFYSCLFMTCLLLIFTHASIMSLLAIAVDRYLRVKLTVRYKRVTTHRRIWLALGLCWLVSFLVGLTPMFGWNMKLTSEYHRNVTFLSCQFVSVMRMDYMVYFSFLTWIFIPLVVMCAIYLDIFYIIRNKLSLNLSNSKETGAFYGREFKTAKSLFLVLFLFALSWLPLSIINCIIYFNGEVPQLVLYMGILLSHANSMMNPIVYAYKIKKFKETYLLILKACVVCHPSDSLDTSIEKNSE

The target of experiment [11] is Muscarinic acetylcholine receptor M3 (Homo sapiens, UniProt P20309).
The target in experiment [12] is T6, Muscarinic acetylcholine receptor M1 (Homo sapiens, UniProt P11229).
T6 sequence (P11229 whole entry): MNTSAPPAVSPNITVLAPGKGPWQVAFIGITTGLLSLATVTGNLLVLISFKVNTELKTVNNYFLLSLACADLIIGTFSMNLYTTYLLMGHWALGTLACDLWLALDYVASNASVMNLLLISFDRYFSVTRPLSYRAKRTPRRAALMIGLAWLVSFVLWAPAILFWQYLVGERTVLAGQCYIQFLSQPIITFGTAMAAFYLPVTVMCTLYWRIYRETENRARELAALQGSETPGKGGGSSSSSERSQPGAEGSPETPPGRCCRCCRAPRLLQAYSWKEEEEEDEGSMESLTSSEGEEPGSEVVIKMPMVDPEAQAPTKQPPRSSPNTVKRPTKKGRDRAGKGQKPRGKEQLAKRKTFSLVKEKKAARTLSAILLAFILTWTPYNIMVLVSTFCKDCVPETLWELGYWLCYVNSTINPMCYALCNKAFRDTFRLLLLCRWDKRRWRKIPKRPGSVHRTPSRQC
The experiment is classed as functional.
Note: assay procedure not described here.

Sequence of Neuronal acetylcholine receptor subunit alpha-4 (P43681 whole entry): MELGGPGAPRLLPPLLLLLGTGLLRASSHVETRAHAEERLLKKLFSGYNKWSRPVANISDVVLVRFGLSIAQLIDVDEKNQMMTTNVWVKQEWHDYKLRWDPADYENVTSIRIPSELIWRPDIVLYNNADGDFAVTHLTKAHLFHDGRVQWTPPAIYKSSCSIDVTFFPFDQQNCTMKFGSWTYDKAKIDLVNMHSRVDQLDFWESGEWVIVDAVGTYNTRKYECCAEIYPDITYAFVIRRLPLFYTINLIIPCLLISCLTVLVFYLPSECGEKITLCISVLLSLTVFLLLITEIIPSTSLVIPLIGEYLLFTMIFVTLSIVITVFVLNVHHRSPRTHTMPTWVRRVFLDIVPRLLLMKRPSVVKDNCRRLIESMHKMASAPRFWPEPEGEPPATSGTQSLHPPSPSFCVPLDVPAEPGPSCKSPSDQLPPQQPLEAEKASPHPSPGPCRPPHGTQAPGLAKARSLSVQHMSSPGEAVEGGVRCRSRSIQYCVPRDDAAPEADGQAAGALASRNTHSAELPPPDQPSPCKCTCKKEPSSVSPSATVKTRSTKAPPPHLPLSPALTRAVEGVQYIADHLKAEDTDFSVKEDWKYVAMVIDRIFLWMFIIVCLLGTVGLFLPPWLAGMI
Sequence of cGMP-inhibited 3',5'-cyclic phosphodiesterase 3A (Q14432 whole entry): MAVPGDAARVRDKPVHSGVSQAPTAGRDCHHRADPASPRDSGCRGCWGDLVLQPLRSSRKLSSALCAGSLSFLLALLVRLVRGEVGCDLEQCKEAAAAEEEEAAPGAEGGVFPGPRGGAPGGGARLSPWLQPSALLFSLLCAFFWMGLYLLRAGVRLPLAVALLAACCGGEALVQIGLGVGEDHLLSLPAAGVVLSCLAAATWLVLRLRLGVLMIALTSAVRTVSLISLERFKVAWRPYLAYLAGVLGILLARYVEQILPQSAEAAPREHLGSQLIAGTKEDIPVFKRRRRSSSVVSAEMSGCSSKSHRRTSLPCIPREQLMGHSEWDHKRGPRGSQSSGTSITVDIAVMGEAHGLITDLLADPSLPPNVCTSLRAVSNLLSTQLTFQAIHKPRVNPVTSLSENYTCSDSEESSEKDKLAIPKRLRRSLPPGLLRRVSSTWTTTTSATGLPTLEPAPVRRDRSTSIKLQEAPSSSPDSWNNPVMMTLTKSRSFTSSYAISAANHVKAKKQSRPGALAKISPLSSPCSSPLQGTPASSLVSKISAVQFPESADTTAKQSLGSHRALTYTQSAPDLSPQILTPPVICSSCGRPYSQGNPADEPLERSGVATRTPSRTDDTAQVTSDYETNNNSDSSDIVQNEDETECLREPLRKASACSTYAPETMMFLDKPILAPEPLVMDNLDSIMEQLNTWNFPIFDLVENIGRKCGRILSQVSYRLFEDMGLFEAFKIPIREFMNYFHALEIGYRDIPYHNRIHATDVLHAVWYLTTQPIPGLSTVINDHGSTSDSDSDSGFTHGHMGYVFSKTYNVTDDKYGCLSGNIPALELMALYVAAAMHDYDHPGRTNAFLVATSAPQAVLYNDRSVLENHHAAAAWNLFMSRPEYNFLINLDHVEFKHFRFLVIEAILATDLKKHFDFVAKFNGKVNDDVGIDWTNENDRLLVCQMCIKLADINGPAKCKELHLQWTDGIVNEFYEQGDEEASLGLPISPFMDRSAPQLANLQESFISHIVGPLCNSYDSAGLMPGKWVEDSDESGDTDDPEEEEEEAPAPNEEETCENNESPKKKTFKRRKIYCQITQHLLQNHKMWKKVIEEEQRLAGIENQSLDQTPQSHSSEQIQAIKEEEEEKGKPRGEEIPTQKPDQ
T1 sequence (P41595 whole entry): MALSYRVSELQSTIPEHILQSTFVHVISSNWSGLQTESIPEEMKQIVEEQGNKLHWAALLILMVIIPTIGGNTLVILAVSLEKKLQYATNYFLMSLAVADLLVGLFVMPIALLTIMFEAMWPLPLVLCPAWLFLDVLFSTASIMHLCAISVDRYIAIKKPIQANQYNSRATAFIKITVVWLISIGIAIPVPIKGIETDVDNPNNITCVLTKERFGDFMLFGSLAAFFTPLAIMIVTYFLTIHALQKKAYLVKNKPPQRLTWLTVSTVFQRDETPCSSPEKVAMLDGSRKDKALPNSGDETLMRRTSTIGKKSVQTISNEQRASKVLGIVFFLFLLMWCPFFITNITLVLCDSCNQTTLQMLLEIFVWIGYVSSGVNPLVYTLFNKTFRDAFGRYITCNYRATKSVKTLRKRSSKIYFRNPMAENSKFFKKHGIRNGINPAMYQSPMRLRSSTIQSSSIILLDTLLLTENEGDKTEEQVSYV
Sequence of Muscarinic acetylcholine receptor M3 (P20309 whole entry): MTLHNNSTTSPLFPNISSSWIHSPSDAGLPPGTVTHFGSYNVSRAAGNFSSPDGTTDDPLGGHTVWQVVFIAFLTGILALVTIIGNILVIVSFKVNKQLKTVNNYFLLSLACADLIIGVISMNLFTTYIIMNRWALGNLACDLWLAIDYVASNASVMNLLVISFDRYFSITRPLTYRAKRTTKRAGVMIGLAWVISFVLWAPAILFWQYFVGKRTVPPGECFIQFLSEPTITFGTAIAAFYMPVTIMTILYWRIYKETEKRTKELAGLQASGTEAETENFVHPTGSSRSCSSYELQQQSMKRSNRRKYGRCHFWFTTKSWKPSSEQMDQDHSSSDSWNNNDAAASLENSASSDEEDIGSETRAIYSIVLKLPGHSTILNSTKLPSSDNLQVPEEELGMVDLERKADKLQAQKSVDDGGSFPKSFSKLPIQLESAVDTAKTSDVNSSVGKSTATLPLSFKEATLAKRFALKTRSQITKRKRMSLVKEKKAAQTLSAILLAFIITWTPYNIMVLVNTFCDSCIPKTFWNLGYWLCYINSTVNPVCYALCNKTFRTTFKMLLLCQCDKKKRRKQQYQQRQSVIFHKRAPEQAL
Sequence of Growth hormone secretagogue receptor type 1 (Q92847 whole entry): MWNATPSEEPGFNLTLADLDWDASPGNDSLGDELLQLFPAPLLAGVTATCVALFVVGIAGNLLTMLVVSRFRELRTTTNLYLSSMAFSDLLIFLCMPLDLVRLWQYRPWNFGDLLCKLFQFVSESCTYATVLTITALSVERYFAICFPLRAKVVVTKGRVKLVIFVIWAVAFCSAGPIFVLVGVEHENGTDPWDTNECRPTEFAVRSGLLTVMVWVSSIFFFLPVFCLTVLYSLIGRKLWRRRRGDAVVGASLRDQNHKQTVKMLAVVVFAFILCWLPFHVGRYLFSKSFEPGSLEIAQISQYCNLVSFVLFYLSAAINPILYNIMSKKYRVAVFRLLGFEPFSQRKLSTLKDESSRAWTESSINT

On to `CC1=C(CC(=O)O)c2cc(F)ccc2/C1=C\c1ccc([S+](C)[O-])cc1` (stereo not drawn), for which the AC50 was > 10 µM in experiment [1]; > 10 µM in experiment [2]; > 10 µM in experiment [3]; > 30 µM in [4]; > 30 µM in experiment [5]; > 30 µM in experiment [6]. Besides, the half-maximal activity concentration (AC50) is > 30 µM in experiment [7], > 10 µM in experiment [8], > 10 µM in experiment [9] and > 30 µM in [10].

Take `Cc1nnc2n1-c1ccc(Cl)cc1C(c1ccccc1)=NC2` [ALPRAZOLAM]: the AC50 in [1] was > 10 µM; in experiment [2], > 10 µM; in [3], > 10 µM; in experiment [4], > 30 µM; in experiment [5], > 30 µM; in experiment [6], > 30 µM. Also, the AC50 in experiment [7] is > 30 µM; in [8], > 10 µM; in [9] it was > 10 µM; in experiment [10] it was > 30 µM.

With `CNCCc1ccccn1` [BETAHISTINE], the AC50 in experiment [1], in experiment [2], in [3], in experiment [4], in experiment [5] and in experiment [6] was > 30 µM in each case. Moreover, the half-maximal activity concentration (AC50) in experiment [7], in experiment [8], in experiment [9] and in experiment [10] was > 30 µM each time.

Turning to `O=C(O)CCCC[C@@H]1SC[C@@H]2NC(=O)N[C@@H]21` [BIOTIN], the concentration at half-maximal activity (AC50) is > 10 µM in experiment [1]; > 10 µM in [2]; > 30 µM in [4]; > 30 µM in experiment [11]; > 10 µM in experiment [6]; > 10 µM in experiment [7]. Further, the AC50 in experiment [8], in experiment [9], in experiment [12] and in experiment [10] was > 10 µM each time.

As to `CC(NC(C)(C)C)C(=O)c1cccc(Cl)c1` (stereo not drawn) [BUPROPION], the half-maximal activity concentration (AC50) was > 10 µM in experiment [1]; > 10 µM in [2]; > 10 µM in experiment [3]; > 30 µM in experiment [5]; > 30 µM in experiment [6]; > 30 µM in experiment [7]. For the same molecule, the AC50 in [8] is > 10 µM; in experiment [10], > 30 µM.

For the molecule `Cc1cnc(Nc2ccc(OCCN3CCCC3)cc2)nc1Nc1cccc(S(=O)(=O)NC(C)(C)C)c1` [FEDRATINIB], the half-maximal activity concentration (AC50) is > 10 µM in experiment [1]; > 10 µM in experiment [2]; > 10 µM in [3]; > 30 µM in experiment [4]; 5.7 µM in experiment [11]; 9.16 µM in experiment [6]. Also, the concentration at half-maximal activity (AC50) is > 30 µM in [7]; > 10 µM in experiment [8]; > 10 µM in [9]; 1.2 µM in experiment [12]; 6.83 µM in experiment [10].

As to `CN1C2CCCC1CC(NC(=O)c1nn(C)c3ccccc13)C2` (stereo not drawn) [GRANISETRON], the concentration at half-maximal activity (AC50) in experiment [1] was > 10 µM; in experiment [2] it was > 10 µM; in [3], > 10 µM; in experiment [4], > 10 µM; in experiment [5] it was > 30 µM; in [6], > 30 µM. The half-maximal activity concentration (AC50) in experiment [7] is > 30 µM; in [8], > 10 µM; in experiment [10] it was > 30 µM.

In the case of `CN1CCC(=C2c3ccccc3CC(=O)c3sccc32)CC1` [KETOTIFEN], the concentration at half-maximal activity (AC50) was > 10 µM in experiment [1]; 0.09 µM in experiment [2]; > 10 µM in experiment [3]; > 30 µM in experiment [4]; > 10 µM in experiment [6]; > 10 µM in experiment [7]. Moreover, the AC50 in [8], in experiment [9] and in [10] was > 10 µM throughout.

As to `CCN(CC)CC(=O)Nc1c(C)cccc1C` [LIDOCAINE], the AC50 in [4] is > 10 µM; in experiment [5], > 30 µM; in experiment [6], > 30 µM; in experiment [7], > 30 µM; in [10], > 30 µM.

For the molecule `Nc1cc(N2CCCCC2)nc(N)[n+]1[O-]` [MINOXIDIL], the concentration at half-maximal activity (AC50) was > 10 µM in experiment [1]; > 10 µM in [2]; > 30 µM in experiment [3]; > 30 µM in experiment [4]; > 30 µM in experiment [6]; > 30 µM in experiment [7]. Further, the AC50 in experiment [8] is > 10 µM; in experiment [9] it was > 10 µM; in experiment [10], > 30 µM.

Take `COc1nc(C)nc(Cl)c1N=C1NCCN1` [MOXONIDINE]: the concentration at half-maximal activity (AC50) in experiment [1], in experiment [2], in [4], in [5], in experiment [6] and in experiment [7] was > 30 µM in each case. Besides, the AC50 in [8], in [9] and in experiment [10] was > 30 µM in each case.

In the case of `Nc1ccc(S(=O)(=O)Nc2ncccn2)cc1` [SULFADIAZINE], the AC50 in experiment [1] was > 10 µM; in experiment [2] it was > 10 µM; in experiment [3] it was > 10 µM; in [4], > 30 µM; in [6], > 10 µM; in experiment [7] it was > 10 µM. The AC50 in experiment [8], in experiment [9] and in experiment [10] was > 10 µM throughout.

Consider `Cc1cccc(Nc2ccncc2S(=O)(=O)NC(=O)NC(C)C)c1` [TORSEMIDE], for which the AC50 in experiment [1] was > 10 µM; in [2], > 10 µM; in experiment [3], > 10 µM; in [4], > 30 µM; in [6], > 30 µM; in experiment [7] it was > 30 µM. Moreover, the half-maximal activity concentration (AC50) was > 10 µM in experiment [8], > 30 µM in experiment [9] and > 30 µM in [10].

Take `CCN(C(C)=O)c1cccc(-c2ccnc3c(C#N)cnn23)c1` [ZALEPLON]: the AC50 in experiment [1] was > 10 µM; in experiment [2], > 10 µM; in experiment [3], > 30 µM; in experiment [4], 10 µM; in experiment [6] it was > 30 µM; in experiment [7], > 30 µM. Also, the half-maximal activity concentration (AC50) in experiment [8] was > 10 µM; in experiment [9] it was > 30 µM; in [10], > 30 µM.

Turning to TEPRENONE, the concentration at half-maximal activity (AC50) in experiment [1] is > 10 µM; in experiment [2], > 10 µM; in experiment [3] it was > 30 µM; in experiment [4], > 30 µM; in [11], > 30 µM; in experiment [6], > 30 µM. Also, the concentration at half-maximal activity (AC50) is > 30 µM in [7]; > 10 µM in experiment [8]; > 10 µM in experiment [9]; > 10 µM in experiment [12]; > 30 µM in experiment [10].

These data come from ChEMBL document CHEMBL5291721, “A preclinical secondary pharmacology resource illuminates target-adverse drug reaction associations of marketed drugs” (Nat Commun, 2023).
